The target in one assay is T1, p70S6K (Homo sapiens, UniProt P23443).
T1 construct: endogenous in cells
The assay is described as follows: Cell-based kinase assay, phosphorylation of intracellular substrate (Ser-235/236 S6). How it is done: As a specific substrate, the phosphorylation level of GSK-3[…] at Ser-9 was also evaluated. […] The decrease was specific to the AKT phosphorylation site on GSK-3[…] at Ser-9, since a change in the phosphorylation level of GSK-3[…] at Tyr-216 or GSK-3[…] at Tyr-279 was not observed. Moreover, the in vivo reduction of the phosphorylation of AKT substrates was more obvious at the injection site, since a significant change in the phosphorylation of AKT substrates in the frontal cortex or cerebellum between the two hemispheres was not observed. […] To test the specificity/selectivity of ZaTa as the inhibitor of AKT1 versus the other major kinases, a series of in vitro kinase assays was performed at IC50 for AKT1 and at ten times higher concentrations. […]
(§1) Phosphorylation sites for kinases analyzed herein included Ser-235/236 S6 (a substrate for p70S6K), Tyr-207 CRKL (a substrate for Abl; Zipfel, et al. (2004) supra), Ser-241 PDK1 (a substrate for PI3K), Tyr-1022/1023 JAK1 (a substrate for JAK3; Wang, et al. (2003) supra), Ser-421 Huntingtin (a substrate for SGK; Rangone, et al. (2004) supra), Tyr-783 PLC (a substrate for TrkB; Middlemas, et al. (1994) supra), and Ser-338 cRaf (a substrate for PAK3; King, et al. (1998) supra).

A further assay concerns the target T2, PKAc (Homo sapiens, UniProt P17612).
T2 construct: purchased Upstate Biotechnology
The assay is described as follows: Independent kinase assays on catalytic activity of PKAc. It is filed as biochemical. From the text:
Of particular interest with regard to inhibitory activity toward AKT was peptide […](SEQ ID NO:60) which flanked the Thr-197 phosphorylation site of PKAc. […] Furthermore, the inhibitory effect of ZaTa peptide was compared with an adjacent peptide ([…] SEQ ID NO:59), a peptide that overlaps with the 11 N-terminal amino acid residues of the ZaTa peptide and carries the Thr-197 phosphorylation site. In this assay, the level of incorporation of −^32 P into Ser-21 GSK-3[…] substrate peptide was used as the measure of AKT1 in vitro catalytic activity.
For non-radioactive kinase assays, typically 25 ng of active AKT1 or PKAc (Upstate Biotechnology) was used in a kinase assay reaction buffer (20 mM MOPS, pH 7.2, 25 mM […]-glycerophosphate, 5 mM EGTA, 1 mM Na3VO4, 1 mM dithiothreitol, 75 mM MgCl2, and 0.5 mM ATP) in the presence of either 1 μL of Ser-9 GSK-3 GST fusion protein (Cell Signaling), or recombinant DARPP-32 (10 μg). […] A 5 μL aliquot of the reaction was transferred to phosphocellulose paper, washed for 30 minutes with dH2O, and CPM of samples read in scintillation counter.

The subject of assay [1] is the other kinases assayed. The assay is described as follows: In vivo selectivity, western blot of phosphorylated substrates, other kinases inhibited in vitro at higher concentrations. Also on record: species or system mouse. The following applies: versus DMSO hemisphere. On the procedure: To analyze in vivo selectivity, ZaTa was injected into one hemisphere and DMSO in the other hemisphere, as above, and a series of western blot analyses was preformed with phospho-specific antibodies which recognize a phosphorylated substrate or each one of the kinases that ZaTa inhibited at higher concentrations in vitro. […] Given the high functional and structural homology between p70S6K and AKT, the in vivo inhibitory effect of ZaTa on p70S6K was contemplated. Furthermore, the in vivo effect of ZaTa on the phosphorylation levels of substrates for PKA, PKC, CDKs using phospho-specific antibodies recognizing the phosphorylated consensus sites of these kinases was analyzed. In contrast to the consistent decrease in phosphorylation of AKT substrates, significant changes in the phosphorylation level of PKA, PKC and CDKs substrates was not observed after in vivo injection of ZaTa.
as §1
(In western blotting, separated proteins are transferred to a membrane and probed.)

Where no end group is shown, it is not given here.

T1 sequence (P23443 whole entry): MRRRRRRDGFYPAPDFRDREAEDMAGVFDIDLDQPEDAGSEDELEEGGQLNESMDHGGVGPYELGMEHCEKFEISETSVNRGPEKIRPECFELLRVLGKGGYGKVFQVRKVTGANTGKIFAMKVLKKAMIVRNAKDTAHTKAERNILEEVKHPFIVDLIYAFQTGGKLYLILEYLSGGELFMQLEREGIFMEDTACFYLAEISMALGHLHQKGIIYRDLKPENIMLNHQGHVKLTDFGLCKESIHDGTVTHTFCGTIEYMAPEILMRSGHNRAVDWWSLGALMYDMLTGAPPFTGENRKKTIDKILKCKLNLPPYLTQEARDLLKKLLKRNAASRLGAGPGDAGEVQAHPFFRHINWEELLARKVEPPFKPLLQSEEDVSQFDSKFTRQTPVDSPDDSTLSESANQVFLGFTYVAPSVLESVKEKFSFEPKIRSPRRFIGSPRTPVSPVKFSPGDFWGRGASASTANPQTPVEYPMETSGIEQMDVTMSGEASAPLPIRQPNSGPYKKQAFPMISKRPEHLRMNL

For AKRVKGRTWTLCGTPEY [ZaTa], the “inhibition of p70S6K in cells” value against p70S6K is reported as “could inhibit p70S6K”. Moreover, on PKAc, the “inhibitory effect on catalytic activity of PKAc” value is given as “did not exhibit any inhibitory effect”. Moreover, the “in vivo inhibitory effects on the other kinases assayed” value in assay [1] was “No in vivo inhibitory effects”.

These data come from patent publication US8541670B2, “Compositions and methods for inhibiting tumor cell growth” (priority 2007, dated 2013).
